Assay results as given in patent publication US20140315834A1 (Medicon Pharmaceuticals, Inc., priority 2012, published 2014).
Like-named read-outs stand apart in the source and are kept apart here.

How the values were obtained:
CYP 3A4 = CYP 3A4 (Homo sapiens, UniProt P08684); conditions: 37° C., NADPH-regenerating solution
Description: (§1) PSA 95 was pre-incubated at 37° C. for 5 minutes with an NADPH-regenerating solution in 0.1 M potassium phosphate buffer (pH 7.4). The reaction was initiated by the addition of individual recombinant human CYP isoforms (25 μmol/ml) in a total volume of 1 ml and samples were maintained at 37° C. for various time periods. At each designated time-point, aliquots were extracted with acetonitrile, and subjected to HPLC analysis.

[1] = test system: MDA-MB-231 human BC cells; assay: Orthotopic MDA-MB-231 breast cancer xenografts, prevention; type: in vivo, mice
CYP 2C9 = CYP 2C9 (Homo sapiens, UniProt P11712); conditions: 37° C., NADPH-regenerating solution
CYP 2C9, sequence (P11712 whole entry): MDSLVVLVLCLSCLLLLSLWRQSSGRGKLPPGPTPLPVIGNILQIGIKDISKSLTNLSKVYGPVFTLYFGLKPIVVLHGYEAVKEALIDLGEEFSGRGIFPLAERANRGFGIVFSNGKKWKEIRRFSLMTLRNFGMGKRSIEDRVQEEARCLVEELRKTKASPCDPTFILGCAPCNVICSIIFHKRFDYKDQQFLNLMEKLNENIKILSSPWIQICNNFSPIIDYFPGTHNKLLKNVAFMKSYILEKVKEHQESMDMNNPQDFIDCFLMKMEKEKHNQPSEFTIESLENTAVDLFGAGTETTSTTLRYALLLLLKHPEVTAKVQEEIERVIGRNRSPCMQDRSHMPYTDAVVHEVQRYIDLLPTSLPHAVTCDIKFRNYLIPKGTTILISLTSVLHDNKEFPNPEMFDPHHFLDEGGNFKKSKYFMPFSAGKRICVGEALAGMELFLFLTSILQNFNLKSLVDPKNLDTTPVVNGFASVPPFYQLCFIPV
Description: as §1

CYP 1A2 = CYP 1A2 (Homo sapiens, UniProt P05177); conditions: 37° C., NADPH-regenerating solution
CYP 1A2, sequence (P05177 whole entry): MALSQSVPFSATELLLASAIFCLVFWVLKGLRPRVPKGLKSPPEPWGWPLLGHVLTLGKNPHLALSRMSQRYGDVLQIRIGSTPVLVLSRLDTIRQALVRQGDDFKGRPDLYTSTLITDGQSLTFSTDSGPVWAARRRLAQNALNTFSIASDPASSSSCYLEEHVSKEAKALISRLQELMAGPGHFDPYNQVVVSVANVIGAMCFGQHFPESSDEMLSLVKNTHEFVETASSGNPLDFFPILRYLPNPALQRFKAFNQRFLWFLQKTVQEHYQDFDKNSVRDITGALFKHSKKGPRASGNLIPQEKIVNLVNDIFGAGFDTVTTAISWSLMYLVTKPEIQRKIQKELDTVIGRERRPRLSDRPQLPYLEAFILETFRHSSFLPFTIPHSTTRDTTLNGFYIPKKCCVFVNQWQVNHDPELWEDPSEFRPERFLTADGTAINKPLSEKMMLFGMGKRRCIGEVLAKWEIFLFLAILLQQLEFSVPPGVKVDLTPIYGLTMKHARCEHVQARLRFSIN
Description: as §1

CYP 2C19 = CYP 2C19 (Homo sapiens, UniProt P33261); conditions: 37° C., NADPH-regenerating solution
CYP 2C19, sequence (P33261 whole entry): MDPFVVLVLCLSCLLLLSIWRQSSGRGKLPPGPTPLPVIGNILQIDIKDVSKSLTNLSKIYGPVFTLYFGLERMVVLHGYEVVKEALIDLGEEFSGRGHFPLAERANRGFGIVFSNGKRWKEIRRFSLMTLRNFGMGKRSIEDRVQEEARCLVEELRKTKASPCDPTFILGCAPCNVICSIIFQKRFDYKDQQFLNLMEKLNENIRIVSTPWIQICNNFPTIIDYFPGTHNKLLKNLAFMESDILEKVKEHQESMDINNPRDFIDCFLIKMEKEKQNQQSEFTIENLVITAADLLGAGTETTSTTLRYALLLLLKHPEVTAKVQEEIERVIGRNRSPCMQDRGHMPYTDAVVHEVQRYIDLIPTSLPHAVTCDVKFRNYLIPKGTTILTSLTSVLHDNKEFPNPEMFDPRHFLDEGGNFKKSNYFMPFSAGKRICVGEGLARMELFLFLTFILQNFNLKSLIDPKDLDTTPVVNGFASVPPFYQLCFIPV
Description: as §1

CYP 2D6 = CYP 2D6 (Homo sapiens, UniProt P10635); conditions: 37° C., NADPH-regenerating solution
CYP 2D6, sequence (P10635 whole entry): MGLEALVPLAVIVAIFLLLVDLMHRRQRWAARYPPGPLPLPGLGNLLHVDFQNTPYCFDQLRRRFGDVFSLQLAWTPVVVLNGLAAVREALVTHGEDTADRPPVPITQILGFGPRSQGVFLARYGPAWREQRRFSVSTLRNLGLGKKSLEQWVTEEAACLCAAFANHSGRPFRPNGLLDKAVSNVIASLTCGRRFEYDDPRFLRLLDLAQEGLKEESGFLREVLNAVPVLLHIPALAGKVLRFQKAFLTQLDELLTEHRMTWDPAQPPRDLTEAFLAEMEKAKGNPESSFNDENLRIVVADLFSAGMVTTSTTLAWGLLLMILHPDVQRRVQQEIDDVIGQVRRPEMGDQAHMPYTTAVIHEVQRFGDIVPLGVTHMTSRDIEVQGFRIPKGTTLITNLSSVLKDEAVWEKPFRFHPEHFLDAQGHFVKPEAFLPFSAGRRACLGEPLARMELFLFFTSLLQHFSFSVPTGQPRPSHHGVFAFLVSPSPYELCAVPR
Description: as §1

A431 skin cancer cells = assay: Cellular uptake, intracellular level by HPLC; conditions: 1 hour incubation
Description: A431 skin cancer cells were seeded into 6-well culture plates (5×10^5 per well). After overnight incubation, the cells were incubated with 100 pM of each compound alone for 1 hour. After the media were removed and the monolayers were washed three times with PBS (1% BSA), the cells were collected in PBS.

[2] = Pharmacokinetics of PI-PEG and PI, i.p.; type: in vivo, mice; conditions: equimolar doses
Description: PI-PEG 7 and PI 1 were injected i.p. in mice at equimolar doses and at predetermined time points the animals were sacrificed and blood was collected through heart puncture. PI-PEG and PI were extracted by adding a 2-fold volume of acetonitrile. After centrifugation for 10 minutes at 5000×g, the supernatants were subjected to HPLC analysis.

[3] = test system: U87 glioblastoma cell line; assay: 24-hour growth inhibition of glioblastoma cells; type: cell-based; conditions: read-out: 24-h 1c50
p-ERK1/2 = assay: Immunostaining of xenograft tissue sections, p-ERK1/2; type: in vivo, mice; conditions: MIA PaCa-2 xenograft tissue sections
[4] = test system: active Ras in MIA PaCa-2 xenografts; assay: Ras-GTP pull down assay in xenograft lysates; type: in vivo, mice
Description: The inhibition of Ras by P-FTS 67 was further confirmed in vivo. The Ras-GTP pull down assay was used to test the capacity of P-FTS 67 to inhibit active Ras in fresh protein lysates from MIA PaCa-2 xenografts. Compared to controls, P-FTS 67, 50 and 100 mg/kg reduced RAS activation in xenografts by 62% and 70%, respectively (p<0.01, for both; FIG. 30A).

MIA PaCa-2 cells = assay: MIA PaCa-2 pancreatic cancer xenografts; type: in vivo, mice; conditions: for reduction of tumor volume growth: day 25
Description: The in vivo chemotherapeutic potential of P-FTS 67 was assessed using a pancreatic cancer xenograft model. MIA PaCa-2 cells were injected subcutaneously into the flank areas of nude mice. When palpable tumors were observed, the mice received P-FTS 67, 50 or 100 mg/kg/d by oral gavage in corn oil or just corn oil (control) for 25 days. On day 25 of treatment, P-FTS 67, 50 mg/kg/d, and P-FTS 67, 100 mg/kg/d reduced the tumor volume growth by 62% and 65%, respectively (p <0.05; FIG. 27).

[5] = test system: Ras (Ras-GTP) in Panc-1 cells; assay: Ras-GTP pull down assay in cells; type: cell-based
Source text: In the following experiments it was examined whether the pancreatic cancer growth inhibitory effect of P-FTS 67 is associated with down regulation of Ras signaling. For this purpose, the Ras-GTP pull down assay was used.

p-c-RAF = assay: Immunostaining of xenograft tissue sections, p-c-RAF; type: in vivo, mice; conditions: MIA PaCa-2 xenograft tissue sections
[6] = Sub-chronic toxicity of P-FTS, 3 weeks oral gavage; type: in vivo, mice
Description: The toxicity of P-FTS in mice was further examined. Groups of 6 week-old female BALB/c mice (5 mice/group) were given by oral gavage once a day for 3 weeks P-FTS: 0, 75, 150, 250 and 350 mg/kg. […] The (sub-chronic) maximum tolerated dose of P-FTS 67 (3-week period of observation) was determined to be at least 350 mg/kg/d.

[7] = test system: AsPC-1, CFPAC-1, Capan-2, Panc-1 and MIA PaCa-2; assay: Growth of human pancreatic cancer cell lines, 24 hours; type: cell-based; conditions: escalating concentrations, all cell lines
Description: Cell growth was determined in the human pancreatic cancer cell lines AsPC-1, CFPAC-1, Capan-2, Panc-1 and MIA PaCa-2 after treatment with escalating concentrations of P-FTS 67 for 24 hours.

[8] = Gastrointestinal toxicity, gastric ulcers by H&E staining
[9] = Pharmacokinetics of PTI, plasma levels after i.p. dose
[10] = test system: Salmonella Typhimurium (TA98 and TA100); assay: Genotoxicity, reverse mutation with and without rat liver S9; conditions: TA98 and TA100, presence and absence of rat liver S9
SW480 colon cancer cells = assay: SW480 xenografts, prevention of colon cancer; type: in vivo, mice; conditions: 10 mg/kg/day oral gavage, 43 days, end of study
Description: Six-week-old female athymic nude mice, i.e. lacking a thymus gland and having no T-cells (Taconic Farms, Germantown, N.Y.; in =6/group) were treated by oral gavage of PTI 10 mg/kg/day, or vehicle (corn oil) for a total of 43 days. Five days later, 1.2×10^6 SW480 colon cancer cells suspended in 100 μl of phosphate buffered saline (PBS) were inoculated subcutaneously to each flank of the mice. Tumor size was monitored by measuring the length (L) and width (W) with a digital caliper and the volume was calculated according to the formula, L×W×(L+W/2)×0.56.

[11] = Cardiotoxicity, histology of heart tissue sections; type: in vivo, mice; conditions: treated for about 1.5 months
Source text: Heart tissue sections from mice treated with PTI for about 1.5 months were examined histologically.

in vivo = conditions: wt (wild type) and nude, mouse, po
[12] = Levels of PA-III and metabolites in blood and xenografts by HPLC; type: in vivo; conditions: mice treated with PA-III 506
[13] = Maximum tolerated dose of PA-III; parameters: species or system mice; conditions: mouse, in vivo
Description: The ability of phospho-aspirin III (PA-III) 506 to prevent breast cancer (BC) was evaluated using MDA-MB-231 human BC cells xenografted into one of the mammary glands of nude mice (orthotopic xenografts). PA was administered orally, 120 mg/kg/d 1 week prior to inoculating the cells (the standard prevention protocol); acetylsalicylic acid (ASA) was given at an equimolar dose of 40 mg/kg/d. This was the highest dose of ASA that these mice could tolerate on a long-term basis. The dose of PA-III 506 represents <10% of its maximum tolerated dose (MTD>1,600 mg/kg), but was chosen so that a comparison between PA-III 506 and ASA was possible.

[14] = mouse, in vivo, po, 100 mg/kg
[15] = parameters: AUC in lung: unit not given beside the values; conditions: mouse, in vivo, inhaled or intranasal
[16] = test system: A549 human lung cancer xenografts; assay: A549 sc xenografts, i.v. PS in nanocarrier vs sulindac; type: in vivo, mice; conditions: equimolar dose of sulindac 40 mg/kg
[17] = Pharmacokinetics of phosphosulindac amide, single oral dose; conditions: after single oral dose 100 mg/kg PSA 95
[18] = rat, in vivo
[19] = 120 mg/kg/d orally, 20 treated mice

CYP 3A4, sequence (P08684 whole entry): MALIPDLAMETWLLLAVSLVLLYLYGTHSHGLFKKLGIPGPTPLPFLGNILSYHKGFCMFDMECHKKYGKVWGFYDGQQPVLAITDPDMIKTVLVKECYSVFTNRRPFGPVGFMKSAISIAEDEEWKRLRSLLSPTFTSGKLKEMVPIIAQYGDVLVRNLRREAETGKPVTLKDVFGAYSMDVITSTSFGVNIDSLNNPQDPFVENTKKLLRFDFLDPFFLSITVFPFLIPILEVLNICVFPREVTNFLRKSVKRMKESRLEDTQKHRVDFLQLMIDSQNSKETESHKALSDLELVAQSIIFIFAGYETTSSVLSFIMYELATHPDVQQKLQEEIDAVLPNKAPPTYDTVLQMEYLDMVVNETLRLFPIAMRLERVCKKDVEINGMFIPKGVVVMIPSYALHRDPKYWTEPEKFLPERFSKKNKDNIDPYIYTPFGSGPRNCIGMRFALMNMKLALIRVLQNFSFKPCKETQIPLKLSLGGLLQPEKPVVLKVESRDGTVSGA

In the case of `CC(=O)Oc1ccccc1C(=O)O` [ASA, acetylsalicylic acid], the “oxidation by CYP 3A4” value (CYP 3A4) is reported as “cannot be oxidized”, the “effect on BC xenograft growth” value ([1]; 40 mg/kg/d) is reported as “no effect” and the “oxidation by CYP 2C9” value (CYP 2C9) is reported as “cannot be oxidized”. For the same compound, the “oxidation by CYP 1A2” value (CYP 1A2) was “cannot be oxidized”, the “oxidation (conversion to 5-OH-PSA) by CYP 2C19” value (CYP 2C19) was “cannot be oxidized” and the “oxidation (conversion to 5-OH-PSA) by CYP 2D6” value (CYP 2D6) was “cannot be oxidized”.

For `CCOP(=O)(OCC)OCCCCOC(=O)C(C)c1ccc(CC(C)C)cc1` (stereo not drawn) [Compound 2, phospho-ibuprofen], the “level inside the cells” value (A431 skin cancer cells; 100 pM) was 0.75 nM, the “increase over the other two compounds” value (A431 skin cancer cells; limit of detection 2.5 pmol) was no less than 300 fold and the “stability and circulation in blood” value [2] was “rapidly hydrolyzed”. For the same compound, the IC50 ([3]; 24 h) was 98 µM.

In the case of `CCOP(=O)(OCC)OCCCCOC(=O)c1ccccc1SC/C=C(\C)CC/C=C(\C)CCC=C(C)C` [Compound 67], the “reduction of expression of p-ERK1/2” value (p-ERK1/2) is reported as 71%, the “reduction of RAS activation in xenografts” value ([4]; 50 mg/kg) is reported as 62% and the “reduction of RAS activation in xenografts” value ([4]; 100 mg/kg) is reported as 70%. For the same compound, the “reduction of tumor volume growth” value (MIA PaCa-2 cells; 50 mg/kg/d oral gavage) was 62%, the “reduction of tumor volume growth” value (MIA PaCa-2 cells; 100 mg/kg/d oral gavage) was 65% and the “tolerability in the efficacy study” value (MIA PaCa-2 cells; 50 or 100 mg/kg/d oral gavage, 25 days) was “well tolerated”. The “inhibition of active Ras (Ras-GTP)” value [5] was “significantly inhibited”, the “reduction of expression of p-c-RAF” value (p-c-RAF) was 73% and the “weight loss or other signs of toxicity” value ([6]; 75, 150, 250 and 350 mg/kg oral gavage once a day for 3 weeks) was “no weight loss or other signs of toxicity”. For the same compound, the “(sub-chronic) maximum tolerated dose” value ([6]; oral gavage once a day, 3-week period of observation) was “at least 350 mg/kg/d” and the “pancreatic cancer cell growth, % control” value [7] was “decreases pancreatic cancer cell growth in a concentration-dependent manner”.

For `CCOP(=O)(OCC)OCCc1ccc(OC(=O)Cc2c(C)n(C(=O)c3ccc(Cl)cc3)c3ccc(OC)cc23)cc1` [Compound 93], the “gastric damage, H&E stained gastric tissue sections” value ([8]; FIG. 18A) was “not”, the “reduction of ulcers compared to indomethacin” value ([8]; day 5, PTI 10 mg/kg/day) was 60% and the “rats that developed ulcers” value ([8]; day 5, gavage 4 days, indomethacin 4.75 mg/kg/day, PTI 10 mg/kg/day) was 40%. The “AUCtotal of PTI relative to indomethacin” value ([9]; FIG. 19, equimolar i.p. doses) was “about 3.5 times”, the “time at which PTI became undetectable post administration” value ([9]; single i.p. dose 100 mg/kg PTI) was 4 h and the “time of maximum concentration of PTI” value ([9]; single i.p. dose 100 mg/kg PTI) was 2 h. The genotoxicity [10] was “no genotoxicity”, the “reduction of tumor growth” value (SW480 colon cancer cells) was 85% and the “heart histology vs healthy control mice” value [11] was “no differences”.

Compound `CCOP(=O)(OCC)OCC(CNC(=O)CC1=C(C)/C(=C/c2ccc([S+](C)[O-])cc2)c2ccc(F)cc21)OP(=O)(OCC)OCC` (stereo not drawn) [Compound 99, (Z)-tetraethyl 3-(2-(5-fluoro-2-methyl-1-(4-(methylsulfinyl)benzylidene)-1H-inden-3-yl)acetamido)propane-1,2-diyl diphosphate] has an MTD at 1 week (in vivo) greater than 500 mg/kg/day.

With `CCOP(=O)(OCC)OCCCCOC(=O)c1ccccc1OC(C)=O` [PA-III 506, phospho-aspirin] the “reduction of average tumor volume compared to controls” value ([1]; 120 mg/kg/d orally) was 62%, the “treated mice that had no tumors” value [1, 19] was 20% and the “treated mice that had tumors <100 mm^3” value [1, 19] was 30%. For the same compound, the “intact compound in plasma or xenografts” value [12] was “No intact PA-III 506 in either plasma or xenografts was detected” and the “maximum tolerated dose (MTD)” value [13] was > 1,600 mg/kg.

In the case of `CC1=C(CC(=O)O)c2cc(F)ccc2/C1=C\c1ccc(S(C)(=O)=O)cc1` [Sulindac sulfone, sulindac sulfone], the “metabolite generated by PSA 95” value [14] is reported as “no detectable”, the AUC in lung [15] is reported as 57.5 and the Tmax in lung [15] is reported as 8 h. The Tmax in plasma [15] was 8 h.

In the case of `CC1=C(CC(=O)O)c2cc(F)ccc2/C1=C\c1ccc([S+](C)[O-])cc1` (stereo not drawn) [Sulindac, sulindac, reference compound], the “inhibition of growth of xenografts” value [16] is reported as 32%, the “metabolite generated by PSA 95” value [17] is reported as “no detectable” and the IC50 ([3]; U87, 24-hour growth inhibition) is reported as no less than 1000 µM.

For `CC(C)Cc1ccc(C(C)C(=O)O)cc1` (stereo not drawn) [ibuprofen, reference compound], the “accumulation in A431 cells” value (A431 skin cancer cells; limit of detection 2.5 pmol) was “no significant accumulation” and the IC50 ([3]; U87, 24-hour growth inhibition) was no less than 1000 µM.

In the case of `COc1ccc2c(c1)c(CC(=O)O)c(C)n2C(=O)c1ccc(Cl)cc1` [indomethacin, reference compound], the Tmax ([9]; mouse, plasma, ip, 58 mg/kg) is reported as 1 h and the “gastric damage, H&E stained gastric tissue sections” value [18] is reported as “caused gastric damage”.

With `CC(C)Cc1ccc(C(C)C(=O)OCCCCOP(=O)(O)O)cc1` (stereo not drawn) [phospho-ibuprofen phosphate 505] the “accumulation in A431 cells” value (A431 skin cancer cells; limit of detection 2.5 pmol) was “no significant accumulation”.
